Assays:
[1] = Oral bioavailability in Beagle dog at 2 mg/kg; assay type: ADME, organism-based, Canis lupus familiaris; conditions: in vivo
[2] = Oral bioavailability in Wistar rat at 2 mg/kg; assay type: ADME, organism-based; conditions: in vivo
[3] = Clearance in Wistar rat at 2 mg/kg,po; assay type: ADME, organism-based; conditions: in vivo
[4] = target: T1, C-X-C chemokine receptor type 3 (Homo sapiens, UniProt P49682); assay: Antagonist activity at CXCR3 (unknown origin) in human T cells in venous blood assessed as receptor internalization incubated for 30 mins in presence of CXCL10 by flow cytometric analysis; assay type: cell-based, T cell
T1 sequence (P49682 whole entry): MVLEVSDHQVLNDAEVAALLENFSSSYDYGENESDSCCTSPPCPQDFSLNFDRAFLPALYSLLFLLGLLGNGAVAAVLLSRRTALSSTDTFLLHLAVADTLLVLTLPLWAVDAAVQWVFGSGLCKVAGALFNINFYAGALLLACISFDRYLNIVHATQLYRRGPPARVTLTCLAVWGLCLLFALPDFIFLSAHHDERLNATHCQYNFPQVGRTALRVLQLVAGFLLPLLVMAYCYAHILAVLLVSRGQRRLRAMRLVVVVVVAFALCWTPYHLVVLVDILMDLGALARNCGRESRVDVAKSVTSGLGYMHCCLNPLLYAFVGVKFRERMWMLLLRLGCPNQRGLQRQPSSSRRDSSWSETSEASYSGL

[5] = target: Voltage-gated inwardly rectifying potassium channel KCNH2 (Homo sapiens, UniProt Q12809); assay: Inhibition of human ERG stably expressed in CHO cells at -80 mV holding voltage by automated QPatch electrophysiological assay; assay type: toxicity, cell-based
Sequence of Voltage-gated inwardly rectifying potassium channel KCNH2 (Q12809 whole entry): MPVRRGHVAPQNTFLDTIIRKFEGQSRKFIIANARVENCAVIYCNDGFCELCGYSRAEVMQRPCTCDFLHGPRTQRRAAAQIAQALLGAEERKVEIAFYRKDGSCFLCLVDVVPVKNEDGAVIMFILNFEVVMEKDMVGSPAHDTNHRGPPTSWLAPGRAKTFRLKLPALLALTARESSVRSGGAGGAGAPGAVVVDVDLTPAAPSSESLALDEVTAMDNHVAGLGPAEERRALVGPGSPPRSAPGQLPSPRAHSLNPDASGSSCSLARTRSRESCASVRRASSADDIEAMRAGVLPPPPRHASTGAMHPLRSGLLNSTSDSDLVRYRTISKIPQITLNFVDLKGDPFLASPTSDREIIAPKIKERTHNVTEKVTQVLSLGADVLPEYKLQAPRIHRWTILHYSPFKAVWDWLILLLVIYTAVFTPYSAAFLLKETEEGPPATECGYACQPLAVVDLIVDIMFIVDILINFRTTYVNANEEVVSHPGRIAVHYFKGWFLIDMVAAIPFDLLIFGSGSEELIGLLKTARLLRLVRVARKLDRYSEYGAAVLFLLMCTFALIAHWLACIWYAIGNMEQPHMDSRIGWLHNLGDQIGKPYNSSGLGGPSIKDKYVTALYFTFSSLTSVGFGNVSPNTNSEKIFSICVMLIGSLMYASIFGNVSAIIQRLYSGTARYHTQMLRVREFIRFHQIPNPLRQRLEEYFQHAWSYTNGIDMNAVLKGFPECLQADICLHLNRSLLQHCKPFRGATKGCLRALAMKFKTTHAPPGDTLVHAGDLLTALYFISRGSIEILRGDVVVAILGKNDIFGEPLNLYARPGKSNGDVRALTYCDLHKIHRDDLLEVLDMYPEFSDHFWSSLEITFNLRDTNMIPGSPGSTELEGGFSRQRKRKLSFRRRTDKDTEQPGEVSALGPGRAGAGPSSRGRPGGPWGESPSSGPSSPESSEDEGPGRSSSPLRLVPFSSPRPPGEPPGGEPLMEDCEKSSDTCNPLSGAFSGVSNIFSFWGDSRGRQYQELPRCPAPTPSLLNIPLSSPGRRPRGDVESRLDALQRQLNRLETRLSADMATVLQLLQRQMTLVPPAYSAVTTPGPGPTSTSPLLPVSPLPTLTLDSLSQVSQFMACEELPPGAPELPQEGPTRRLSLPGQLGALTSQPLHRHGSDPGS

[6] = Metabolic stability in human liver microsomes assessed as intrinsic clearance at 1 uM and measured upto 15 mins in presence of NADPH regenerating system by LC-MS/MS analysis; assay type: ADME, Microsome; conditions: read-out: CLH
[7] = Lipophilicity, log D of compound; assay type: physicochemical; conditions: octanol/water
CYP2D6 = CYP2D6 (Homo sapiens, UniProt P10635); assay: (§1) […] recombinant human CYP2D6 mediated drug metabolism in human liver microsomes assessed as intrinsic clearance at 1 uM incubated for 45 mins in presence of NADPH regenerating system by LC-MS/MS analysis; assay type: ADME, Microsome; conditions: recombinant human CYP2D6, read-out: CLH
Sequence of CYP2D6 (P10635 whole entry): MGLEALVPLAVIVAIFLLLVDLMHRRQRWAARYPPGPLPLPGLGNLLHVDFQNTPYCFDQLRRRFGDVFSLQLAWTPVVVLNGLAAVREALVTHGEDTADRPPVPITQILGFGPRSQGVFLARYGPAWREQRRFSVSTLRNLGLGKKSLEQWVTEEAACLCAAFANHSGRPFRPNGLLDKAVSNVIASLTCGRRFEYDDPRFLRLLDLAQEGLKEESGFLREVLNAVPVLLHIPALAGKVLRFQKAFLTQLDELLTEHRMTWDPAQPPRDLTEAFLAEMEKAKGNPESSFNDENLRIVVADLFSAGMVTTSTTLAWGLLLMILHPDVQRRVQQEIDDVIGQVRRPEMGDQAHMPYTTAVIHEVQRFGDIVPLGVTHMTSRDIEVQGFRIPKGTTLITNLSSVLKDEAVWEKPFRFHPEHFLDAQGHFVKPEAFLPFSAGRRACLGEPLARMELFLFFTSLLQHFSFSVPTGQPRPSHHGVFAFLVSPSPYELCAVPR

CYP3A4 = CYP3A4 (Homo sapiens, UniProt P08684); assay: […] recombinant human CYP3A4 mediated drug metabolism in human liver microsomes assessed as intrinsic clearance at 1 uM incubated for 45 mins in presence of NADPH regenerating system by LC-MS/MS analysis; assay type: ADME, Microsome; conditions: read-out: CLH
Sequence of CYP3A4 (P08684 whole entry): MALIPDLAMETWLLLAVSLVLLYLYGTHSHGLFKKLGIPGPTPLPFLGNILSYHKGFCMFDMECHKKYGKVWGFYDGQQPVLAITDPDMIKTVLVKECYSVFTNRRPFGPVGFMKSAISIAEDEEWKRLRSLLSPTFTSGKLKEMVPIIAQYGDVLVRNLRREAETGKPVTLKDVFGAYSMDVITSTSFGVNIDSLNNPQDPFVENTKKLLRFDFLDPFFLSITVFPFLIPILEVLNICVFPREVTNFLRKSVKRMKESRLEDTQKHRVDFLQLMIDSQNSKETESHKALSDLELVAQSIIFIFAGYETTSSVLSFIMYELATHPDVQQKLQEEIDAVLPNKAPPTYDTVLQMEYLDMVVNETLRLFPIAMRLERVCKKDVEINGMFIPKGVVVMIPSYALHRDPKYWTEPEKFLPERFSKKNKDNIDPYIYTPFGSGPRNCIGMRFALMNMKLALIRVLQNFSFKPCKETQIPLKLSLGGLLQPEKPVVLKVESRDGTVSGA

Cytochrome P450 2D6 = Cytochrome P450 2D6 (Homo sapiens, UniProt P10635); assay: as §1; assay type: ADME, Microsome; conditions: microsomes, 0.75 h, 1 µM
Sequence of Cytochrome P450 2D6 (P10635 whole entry): as the sequence (P10635 whole entry) above

[8] = Protein binding in human plasma assessed as fraction unbound at 1 uM incubated for 6 hrs by rapid equilibrium dialysis based LC-MS/MS analysis; assay type: ADME, cell-free
[9] = Protein binding in rat plasma assessed as fraction unbound at 1 uM incubated for 6 hrs by rapid equilibrium dialysis based LC-MS/MS analysis; assay type: ADME, cell-free
[10] = Protein binding in dog plasma assessed as fraction unbound at 1 uM incubated for 6 hrs by rapid equilibrium dialysis based LC-MS/MS analysis; assay type: ADME, cell-free, Canis lupus familiaris
[11] = Metabolic stability in rat liver microsomes assessed as intrinsic clearance at 1 uM and measured upto 15 mins in presence of NADPH regenerating system by LC-MS/MS analysis; assay type: ADME, Microsome; conditions: read-out: CLH
[12] = Metabolic stability in dog liver microsomes assessed as intrinsic clearance at 1 uM and measured upto 15 mins in presence of NADPH regenerating system by LC-MS/MS analysis; assay type: ADME, Canis lupus familiaris, Microsome; conditions: read-out: CLH
[13] = Metabolic stability in human hepatocytes assessed as intrinsic clearance per 10^6 cells at 1 uM by LC-MS/MS analysis; assay type: ADME, cell-based, Hepatocyte
[14] = Metabolic stability in rat hepatocytes assessed as intrinsic clearance per 10^6 cells at 1 uM by LC-MS/MS analysis; assay type: ADME, cell-based, Hepatocyte
[15] = Metabolic stability in dog hepatocytes assessed as intrinsic clearance per 10^6 cells at 1 uM by LC-MS/MS analysis; assay type: ADME, cell-based, Canis lupus familiaris, Hepatocyte
[16] = Total clearance in Wistar rat plasma at 0.5 mg/kg, iv; assay type: ADME, organism-based
[17] = Unbound clearance in Wistar rat plasma at 0.5 mg/kg, iv; assay type: ADME, organism-based; conditions: in vivo
[18] = Total clearance in Beagle dog plasma at 1 mg/kg, iv; assay type: ADME, organism-based, Canis lupus familiaris
[19] = Unbound clearance in Beagle dog plasma at 1 mg/kg, iv; assay type: ADME, organism-based, Canis lupus familiaris; conditions: in vivo
[20] = Drug excretion in urine of Wistar rat assessed as unchanged drug at 0.5 mg/kg, iv; assay type: ADME, organism-based; conditions: read-out: Drug excretion
[21] = Drug excretion in urine of Wistar rat assessed as unchanged drug at 3 mg/kg, iv; assay type: ADME, organism-based; conditions: read-out: Drug excretion

Compound	IC50 [4] [µM]	IC50 [5] [µM]	microsomal CLint at 1 µM [6] [µL/min/mg]	other results
CC(C)c1ncn(CC(=O)N2CCN(c3sc(C(F)(F)F)nc3-c3cnc(C(F)(F)F)nc3)C[C@H]2C)n1	0.128	7		bioavailability [1]: ≥ 100%; bioavailability [2]: > 100%; CL/F [3]: 6.5 mL/min/kg
CC(C)c1ncn(CC(=O)N2CCN(c3sc(C(F)(F)F)nc3-c3cnc(C(F)(F)F)nc3)C[C@H]2CCO)n1	0.063	5.8	22	
CCc1nc(C)n(CC(=O)N2CCN(c3sc(C(F)(F)F)nc3-c3cnc(C(F)(F)F)nc3)C[C@H]2C)n1	0.483	8.7		
C[C@@H]1CN(c2sc(C(F)(F)F)nc2-c2cnc(C(F)(F)F)nc2)CCN1C(=O)Cn1cnc(CO)n1	0.51	> 60		
O=C(Cn1cnc(C2CC2)n1)N1CCN(c2sc(C(F)(F)F)nc2-c2cnc(C(F)(F)F)nc2)C[C@H]1CCO	0.0591	7.3	12	
CC(O)c1ncn(CC(=O)N2CCN(c3sc(C(F)(F)F)nc3-c3cnc(C(F)(F)F)nc3)C[C@H]2C)n1 (stereo partly drawn)	0.356	> 60		
Cc1ncn(CC(=O)N2CCN(c3sc(C(F)(F)F)nc3-c3cnc(C(F)(F)F)nc3)C[C@@H]2CO)n1	0.273	> 60		
Cc1ccn(CC(=O)N2CCN(c3sc(C(F)(F)F)nc3-c3cnc(C(F)(F)F)nc3)C[C@H]2C)n1	0.0564	5.1		logD [7]: 3.4
Cc1ncnn1CC(=O)N1CCN(c2sc(C(F)(F)F)nc2-c2cnc(C(F)(F)F)nc2)C[C@H]1C	0.477	16		
CC(C)c1ncn(CC(=O)N2CCN(c3sc(C(F)(F)F)nc3-c3cnc(C(F)(F)F)nc3)C[C@@H]2CO)n1	0.161	17	27	
CC(C)c1ncn(CC(=O)N2CCN(c3sc(C(F)(F)F)nc3-c3cnc(C(F)(F)F)nc3)C[C@H]2CO)n1	0.225	29	33	microsomal CLint at 1 µM (CYP2D6): 0.13 µL/min/mg; microsomal CLint at 1 µM (CYP3A4): 1.2 µL/min/mg
CCc1ncn(CC(=O)N2CCN(c3sc(C(F)(F)F)nc3-c3cnc(C(F)(F)F)nc3)C[C@@H]2CO)n1	0.082	> 60	< 10	microsomal CLint at 1 µM (CYP2D6): 0.13 µL/min/mg; microsomal CLint at 1 µM (CYP3A4): 0.27 µL/min/mg
Cc1ccn(CC(=O)N2CCN(c3sc(C(F)(F)F)nc3-c3cnc(C(F)(F)F)nc3)C[C@@H]2CCO)n1	0.143	12	23	microsomal CLint at 1 µM (CYP2D6): 0.37 µL/min/mg; microsomal CLint at 1 µM (CYP3A4): 0.56 µL/min/mg
CCc1ncn(CC(=O)N2CCN(c3sc(C(F)(F)F)nc3-c3cnc(C(F)(F)F)nc3)C[C@H]2CO)n1	0.208	52	< 10	logD [7]: 2.6
C[C@@H]1CN(c2sc(C(F)(F)F)nc2-c2cnc(C(F)(F)F)nc2)CCN1C(=O)Cn1cnc(C(F)(F)F)n1	0.191	3.9		
CCc1ccn(CC(=O)N2CCN(c3sc(C(F)(F)F)nc3-c3cnc(C(F)(F)F)nc3)C[C@H]2CCO)n1	0.0249	2.9	112	
CCc1ccn(CC(=O)N2CCN(c3sc(C(F)(F)F)nc3-c3cnc(C(F)(F)F)nc3)C[C@H]2CO)n1	0.0337	8.6	81	
CCc1ncn(CC(=O)N2CCN(c3sc(C(F)(F)F)nc3-c3cnc(C(F)(F)F)nc3)C[C@H]2CCO)n1	0.0449	9.8	< 10	CLH (Cytochrome P450 2D6): 0.09 µL/min/mg; microsomal CLint at 1 µM (CYP3A4): 0.33 µL/min/mg; logD [7]: 2.8; fraction unbound at 6 h, 1 µM [8]: 0.15; fraction unbound at 6 h, 1 µM [9]: 0.045; fraction unbound at 6 h, 1 µM [10]: 0.3; microsomal CLint at 1 µM [11]: 13 µL/min/mg; microsomal CLint at 1 µM [12]: < 10 µL/min/mg; CLH [13]: < 2 µL/min/mg; CLH [14]: 3.2 µL/min/mg; CLH [15]: < 2 µL/min/mg; clearance [16]: 14 mL/min/kg; CL free [17]: 311 mL/min/kg; clearance [18]: 19 mL/min/kg; CL free [19]: 64 mL/min/kg; dose excreted [20]: 37%

Compound	IC50 [4] [µM]	IC50 [5] [µM]	microsomal CLint at 1 µM [6] [µL/min/mg]	other results
Cc1ccn(CC(=O)N2CCN(c3sc(C(F)(F)F)nc3-c3cnc(C(F)(F)F)nc3)C[C@H]2CO)n1	0.0532	13	< 10	microsomal CLint at 1 µM (CYP2D6): 0.41 µL/min/mg; microsomal CLint at 1 µM (CYP3A4): 0.72 µL/min/mg
Cc1ncn(CC(=O)N2CCN(c3sc(C(F)(F)F)nc3-c3cnc(C(F)(F)F)nc3)C[C@H]2CO)n1	0.167	> 60	< 10	
CC(C)c1ncn(CC(=O)N2CCN(c3sc(C(F)(F)F)nc3-c3cnc(C(F)(F)F)nc3)C[C@@H]2CCO)n1	0.165	19	22	microsomal CLint at 1 µM (CYP2D6): 0.28 µL/min/mg; microsomal CLint at 1 µM (CYP3A4): 1.9 µL/min/mg
Cc1ncn(CC(=O)N2CCN(c3sc(C(F)(F)F)nc3-c3cnc(C(F)(F)F)nc3)C[C@@H]2CCO)n1	0.643	> 60	< 10	
CCc1nncn1CC(=O)N1CCN(c2sc(C(F)(F)F)nc2-c2cnc(C(F)(F)F)nc2)C[C@H]1C	1.19	> 60		logD [7]: 2.3
CCc1nc(C)nn1CC(=O)N1CCN(c2sc(C(F)(F)F)nc2-c2cnc(C(F)(F)F)nc2)C[C@H]1C	0.68	12		
C[C@@H]1CN(c2sc(C(F)(F)F)nc2-c2cnc(C(F)(F)F)nc2)CCN1C(=O)Cn1cnc(C#N)n1	1.32	2.6		
COCc1ncn(CC(=O)N2CCN(c3sc(C(F)(F)F)nc3-c3cnc(C(F)(F)F)nc3)C[C@H]2C)n1	0.44	18		
CCc1ncn(CC(=O)N2CCN(c3sc(C(F)(F)F)nc3-c3cnc(C(F)(F)F)nc3)C[C@H]2C)n1	0.117	12		
C[C@@H]1CN(c2sc(C(F)(F)F)nc2-c2cnc(C(F)(F)F)nc2)CCN1C(=O)Cn1cnc(C(C)(C)C)n1	0.24	7.5		
CCc1ncn(CC(=O)N2CCN(c3sc(C(F)(F)F)nc3-c3cnc(C(F)(F)F)nc3)C[C@@H]2CCO)n1	0.265	27	17	
CCc1ncnn1CC(=O)N1CCN(c2sc(C(F)(F)F)nc2-c2cnc(C(F)(F)F)nc2)C[C@H]1C	1.19	13		logD [7]: 2.8
Cc1ccn(CC(=O)N2CCN(c3sc(C(F)(F)F)nc3-c3cnc(C(F)(F)F)nc3)C[C@H]2CCO)n1	0.0302	5	19	
C[C@@H]1CN(c2sc(C(F)(F)F)nc2-c2cnc(C(F)(F)F)nc2)CCN1C(=O)Cn1cnc(C(N)=O)n1	2.15	> 60		
O=C(Cn1cnc(C2CC2)n1)N1CCN(c2sc(C(F)(F)F)nc2-c2cnc(C(F)(F)F)nc2)C[C@H]1CO	0.14	31	< 10	
Cc1ccn(CC(=O)N2CCN(c3sc(C(F)(F)F)nc3-c3cnc(C(F)(F)F)nc3)C[C@@H]2CO)n1	0.0746	21	< 10	microsomal CLint at 1 µM (CYP2D6): 0.41 µL/min/mg; microsomal CLint at 1 µM (CYP3A4): 1.18 µL/min/mg; logD [7]: 3; fraction unbound at 6 h, 1 µM [8]: 0.11; fraction unbound at 6 h, 1 µM [9]: 0.01; fraction unbound at 6 h, 1 µM [10]: 0.22; microsomal CLint at 1 µM [11]: 13 µL/min/mg; microsomal CLint at 1 µM [12]: 16 µL/min/mg; CLH [13]: < 2 µL/min/mg; CLH [14]: 2.8 µL/min/mg; CLH [15]: 2.4 µL/min/mg; clearance [16]: 7.1 mL/min/kg; CL free [17]: 710 mL/min/kg; clearance [18]: 22 mL/min/kg; CL free [19]: 100 mL/min/kg; dose excreted [21]: 1%
Cc1ncn(CC(=O)N2CCN(c3sc(C(F)(F)F)nc3-c3cnc(C(F)(F)F)nc3)C[C@H]2C)n1	0.144	17		logD [7]: 2.7

Source: ChEMBL document CHEMBL5247653, “Discovery of Clinical Candidate ACT-777991, a Potent CXCR3 Antagonist for Antigen-Driven and Inflammatory Pathologies” (J Med Chem, 2023)
